Test results taken from article PMC10650955, “α-Aminophosphonate inhibitors of metallo-β-lactamases NDM-1 and VIM-2” (RSC Medicinal Chemistry, 2023).
Counter-ions that a name gives are not always drawn.

Assays:
15N-labelled VIM-2 = molecular target: T1, 15N-labelled VIM-2 (Escherichia coli, UniProt Q5U7L7); experiment: 1H,15N HSQC NMR chemical shift perturbation titration, VIM-2; format: binding; conditions: VIM-2 Kd, 0-16 equiv. ligand, pH 7.0, 310 K
T1 construct: made in house
Procedure: (§1) Solution NMR spectroscopy is a powerful tool to assess protein–ligand interactions under close to physiological conditions.[47] We, therefore, performed NMR chemical shift perturbation (CSP, for details, see section S8, ESI ^†) experiments to identify the amino acid residues of NDM-1 and VIM-2 that are involved in inhibitor binding, making use of the previously published protein assignments.[48,49] Titrations were conducted using ^15N-labelled proteins with 0, 0.5, 1, 2, 4, 8, and 16 equiv. of 5 inhibitors for NDM-1 and of 7 inhibitors for VIM-2.
(§2) For the titrations, ^15N-labelled NDM-1 and ^15N-labelled VIM-2 (250 μM), and titrated ligands (0.5 equiv. in 1 μL) were prepared in the same buffer as the protein (20 mM KPO4, 0.1 mM ZnCl2, pH 7.0 with 10% D2O and 2.5% DMSO-d6). ^1H,^15N HSQC spectra were acquired with 128 × 1024 complex points (F1 × F2) and spectral width of 9090 × 2740 Hz on ^15N-labeled NDM-1/VIM-2 and with every titration step up to 1 : 16 ratio between protein : ligand (0, 0.5, 1, 2, 4, 8, and 16 equiv. of ligand). All experiments were recorded on a Bruker 600 MHz spectrometer at 310 K equipped with a 5 mm TCI cryogenic probe. The NMR data were processed on the MestReNova software with the Mnova Binding plugin. The weighted average chemical shift perturbations (CSP) for the backbone amides were calculated from the observed chemical shift differences in the proton and nitrogen dimensions using the equation (chemical shift scaling factors: FH = 1, FN = 0.156) CSP = Δδ1H,15N = [drawing 13] .
(§3) 7. Chemical shift perturbation histograms
(§4) Chemical shift perturbation was calculated according equation (1) 2
(§5) CSP = Δδ(1H,15N) = √(Δδ1H2 + (1⁄R × Δδ15N2) Rscale = 6.5 (1)
(§6) Where Δδ1H is the chemical shift change for proton dimension, Δδ15N is the chemical shift change for nitrogen dimension, Rscale is a
(§7) The chemical shift perturbations (CSP) were classified as significant (SSP) when the observed Δδ(1H,15N) was greater than the population
(§8) mean plus the standard deviation (µ+1σ) – solid line; (µ+2σ) – dashed line, and (µ+3σ) – dashed line.
(§9) Further on, Kd was calculated according: 3
(§10) ([P]+[L]+Kd)− √([P]+[L]+Kd)2−4[P][L]
(§11) ΔδmaxΔδobs = Δδmax 2[P] (2)
(§12) Where Kd is the dissociation constant, [P] and [L] are protein and ligand concentrations, respectively. Δδmax were estimated in
(§13) MestReNova by extrapolation of the obser ved chemical shift differences Δδobs.

VIM-2 = molecular target: T2, VIM-2 (Escherichia coli, UniProt Q5U7L7); experiment: Dose rate inhibition studies for IC50 determination, VIM-2 enzymatic assay; format: biochemical; conditions: Enzyme IC50 VIM-2, 0.1 nM VIM-2, 100 μM ZnCl2, nitrocefin substrate, inhibitor 0-800 μM, 3 parallel measurements; N.I. = no enzyme inhibitory activity observed
T2 construct: made in house
Procedure: (§14) The […] synthesized compounds 5a–l were tested for their inhibitory activities against NDM-1, VIM-2 (Table 1), and GIM-1 in an in vitro enzymatic assay (ESI ^†).[41] The inhibitory activity was measured using enzyme concentrations of 0.1 nM VIM-2, 10 nM NDM-1 or 1 nM GIM-1, with an excess Zn(II) (100 μM, see Experimental methods), with inhibitor compounds with concentrations from 0 to 800 μM. Each data point was measured in triplicates. […] This is in line with previous reports.[42,43]
(§15) A 100 μl solution with buffer (50 mM HEPES (pH 7.2), 100 μM ZnCl2, 2.5% DMSO), purified enzyme (0.1 nM VIM-2, 10 nM NDM-1 or 1 nM GIM-1) and 800–0 μM inhibitor was incubated in a 96 well plate at 25 °C for 5 min. In addition, the enzyme buffer contained 400 μg ml^−1 bovine serum albumin (BSA) to prevent protein unfolding and loss of activity due to low concentrations.[67,68] 100 μM of the reporter substrate nitrocefin (VIM-2, GIM-1) or imipenem (NDM-1) was added to the enzyme–inhibitor solution and the increase in absorbance at 482 nm (nitrocefin) or 300 nm (imipenem) was recorded on a Spectramax M4 spectrophotometer (Molecular Devices). Each data point was performed in triplicates and the initial velocity for each inhibitor concentration was analyzed by a log [inhibitor] vs. response curve fitting to calculate IC50 in GraphPad Prism 9.2 software.

15N-labelled NDM-1 = molecular target: T3, 15N-labelled NDM-1 (Klebsiella pneumoniae, UniProt C7C422); experiment: 1H,15N HSQC NMR chemical shift perturbation titration, NDM-1; format: binding
T3 construct: made in house
Procedure: as §1, §2, §3, §4, §5, §6, §7, §8, §9, §10, §11, §12, §13

NDM-1 = molecular target: T4, NDM-1 (Klebsiella pneumoniae, UniProt C7C422); experiment: Dose rate inhibition studies for IC50 determination, NDM-1 enzymatic assay; format: biochemical; conditions: Enzyme IC50 NDM-1, 10 nM NDM-1, 100 μM ZnCl2, imipenem substrate, inhibitor 0-800 μM, 3 parallel measurements; N.I. = no enzyme inhibitory activity observed
T4 construct: made in house
Procedure: as §14, §15

T3 sequence (C7C422 29-270 limits assumed): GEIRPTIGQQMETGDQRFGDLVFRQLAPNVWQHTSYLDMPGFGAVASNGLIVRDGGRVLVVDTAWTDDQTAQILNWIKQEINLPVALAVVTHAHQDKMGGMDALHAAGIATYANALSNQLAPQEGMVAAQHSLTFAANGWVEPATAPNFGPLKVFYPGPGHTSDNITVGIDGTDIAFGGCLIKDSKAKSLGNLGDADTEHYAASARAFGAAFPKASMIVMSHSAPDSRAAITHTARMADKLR
T4 sequence (C7C422 29-270 limits assumed): as above

## O=C(NC(C1CCCCN1)P(=O)(O)O)c1ccsc1 (centres unmarked) [Compound 5c-1, (Piperidin-2-yl(thiophene-3-carboxamido)methyl)phos-phonic acid hydrochloride]
15N-labelled VIM-2
  Kd: 0.4 ± 0.03 mM
VIM-2
  IC50: 0.033 ± 0.003 mM
15N-labelled NDM-1; Estimated binding constant (Kd), residue 070F, Table S5, per-residue fit, NDM-1 070F
  Kd: 15.2 mM
15N-labelled NDM-1; Estimated binding constant (Kd), residue 091T, Table S5, per-residue fit, NDM-1 091T
  Kd: 4.17 mM
15N-labelled NDM-1; Estimated binding constant (Kd), residue 108E, Table S5, per-residue fit, NDM-1 108E
  Kd: 4.5 mM
15N-labelled NDM-1; Estimated binding constant (Kd), residue 119T, Table S5, per-residue fit, NDM-1 119T
  Kd: 10.7 mM
15N-labelled NDM-1; Estimated binding constant (Kd), residue 123Q, Table S5, per-residue fit, NDM-1 123Q
  Kd: 1.69 mM
15N-labelled NDM-1; Estimated binding constant (Kd), residue 124D, Table S5, per-residue fit, NDM-1 124D
  Kd: 5.76 mM
15N-labelled NDM-1; Estimated binding constant (Kd), residue 127G, Table S5, per-residue fit, NDM-1 127G
  Kd: 10.8 mM
15N-labelled NDM-1; Estimated binding constant (Kd), residue 143A, Table S5, per-residue fit, NDM-1 143A
  Kd: 8.49 mM
15N-labelled NDM-1; Estimated binding constant (Kd), residue 149A, Table S5, per-residue fit, NDM-1 149A
  Kd: 1.76 mM
15N-labelled NDM-1; Estimated binding constant (Kd), residue 152E, Table S5, per-residue fit, NDM-1 152E
  Kd: 3.85 mM
15N-labelled NDM-1; Estimated binding constant (Kd), residue 159H, Table S5, per-residue fit, NDM-1 159H
  Kd: 11.7 mM
15N-labelled NDM-1; Estimated binding constant (Kd), residue 160S, Table S5, per-residue fit, NDM-1 160S
  Kd: 5.4 mM
15N-labelled NDM-1; Estimated binding constant (Kd), residue 188G, Table S5, per-residue fit, NDM-1 188G
  Kd: 15.8 mM
15N-labelled NDM-1; Estimated binding constant (Kd), residue 191S, Table S5, per-residue fit, NDM-1 191S
  Kd: 0.48 mM
15N-labelled NDM-1; Estimated binding constant (Kd), residue 194I, Table S5, per-residue fit, NDM-1 194I
  Kd: 6.26 mM
15N-labelled NDM-1; Estimated binding constant (Kd), residue 197G, Table S5, per-residue fit, NDM-1 197G
  Kd: 1.51 mM
15N-labelled NDM-1; Estimated binding constant (Kd), residue 205F, Table S5, per-residue fit, NDM-1 205F
  Kd: 3.19 mM
15N-labelled NDM-1; Estimated binding constant (Kd), residue 206G, Table S5, per-residue fit, NDM-1 206G
  Kd: 3.95 mM
15N-labelled NDM-1; Estimated binding constant (Kd), residue 211K, Table S5, per-residue fit, NDM-1 211K
  Kd: 10 mM
15N-labelled NDM-1; Estimated binding constant (Kd), residue 213S, Table S5, per-residue fit, NDM-1 213S
  Kd: 9.53 mM
15N-labelled NDM-1; Estimated binding constant (Kd), residue 214K, Table S5, per-residue fit, NDM-1 214K
  Kd: 6.4 mM
15N-labelled NDM-1; Estimated binding constant (Kd), residue 217S, Table S5, per-residue fit, NDM-1 217S
  Kd: 11.8 mM
15N-labelled NDM-1; Estimated binding constant (Kd), residue 228H, Table S5, per-residue fit, NDM-1 228H
  Kd: 17.9 mM
15N-labelled NDM-1; Estimated binding constant (Kd), residue 229Y, Table S5, per-residue fit, NDM-1 229Y
  Kd: 6.74 mM
15N-labelled NDM-1; Estimated binding constant (Kd), residue 230A, Table S5, per-residue fit, NDM-1 230A
  Kd: 11.5 mM
15N-labelled NDM-1; Estimated binding constant (Kd), residue 232S, Table S5, per-residue fit, NDM-1 232S
  Kd: 10.2 mM
15N-labelled NDM-1; Estimated binding constant (Kd), residue 248M, Table S5, per-residue fit, NDM-1 248M
  Kd: 36.6 mM
15N-labelled NDM-1; Estimated binding constant (Kd), residue 249S, Table S5, per-residue fit, NDM-1 249S
  Kd: 4.15 mM
15N-labelled NDM-1; Estimated binding constant (Kd), residue 251S, Table S5, per-residue fit, NDM-1 251S
  Kd: 15.4 mM
15N-labelled NDM-1; Estimated binding constant (Kd), residue 254D, Table S5, per-residue fit, NDM-1 254D
  Kd: 5.56 mM
15N-labelled NDM-1; Estimated binding constant (Kd), residue 255S, Table S5, per-residue fit, NDM-1 255S
  Kd: 10.6 mM
15N-labelled NDM-1; NDM-1 Kd, NMR chemical shift perturbation, 0-16 equiv. ligand, pH 7.0, 310 K
  Kd: 3.1 ± 0.3 mM
NDM-1
  IC50: 0.219 ± 0.014 mM
